Results as given in ChEMBL document CHEMBL1201862, “PubChem BioAssay data set” (2004).
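Cells were grown in 96-well plates and exposed to each compound for 48 hours at five concentrations; endpoints were interpolated linearly between bracketing concentrations, or set to the highest concentration if not reached. The concentration for 50% growth inhibition is given as GI50.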 Active and inactive are the calls of the source. No stated cut-off is given here; in the data, active = GI50 up to about 1.1 µM and inactive = higher.

Legend:
Test in all cases: NCI tumour cell line growth inhibition, 48 h
A549 = system: A549
ACHN = system: ACHN
CCRF-CEM = system: CCRF-CEM
COLO 205 = system: COLO 205
HL-60 = system: HL-60
HOP-62 = system: HOP-62
HOP-92 = system: HOP-92
K562 = system: K562
LXFL 529 = system: LXFL 529
NCI-H23 = system: NCI-H23
OVCAR-3 = system: OVCAR-3
OVCAR-4 = system: OVCAR-4
SF-539 = system: SF-539
SK-MEL-28 = system: SK-MEL-28
SR = system: SR
UO-31 = system: UO-31
RXF 393 = system: RXF 393
SF-268 = system: SF-268
MDA-MB-231 = system: MDA-MB-231
T47D = system: T47D

Compound	GI50 (A549)	GI50 (ACHN)	GI50 (CCRF-CEM)	GI50 (COLO 205)	GI50 (HL-60)	GI50 (HOP-62)	GI50 (HOP-92)	GI50 (K562)	GI50 (LXFL 529)	GI50 (NCI-H23)	GI50 (OVCAR-3)	GI50 (OVCAR-4)	GI50 (SF-539)	GI50 (SK-MEL-28)	GI50 (SR)	GI50 (UO-31)	GI50 (RXF 393)	GI50 (SF-268)	GI50 (MDA-MB-231)	GI50 (T47D)
Cc1cccc(-c2cc(=O)c3cc(C)c(C)c(C(=O)O)c3o2)c1	> 100 µM (inactive)	> 100 µM (inactive)	> 100 µM (inactive)	> 100 µM (inactive)	> 100 µM (inactive)	> 100 µM (inactive)	> 100 µM (inactive)	> 100 µM (inactive)	> 100 µM (inactive)	> 100 µM (inactive)	> 100 µM (inactive)	> 100 µM (inactive)	> 100 µM (inactive)	> 100 µM (inactive)	> 100 µM (inactive)	> 100 µM (inactive)				
Cn1cc(C(=O)C[n+]2ccccc2)c2ccccc21	50.6 µM (inactive)	> 100 µM (inactive)	61.9 µM (inactive)	52.2 µM (inactive)	> 100 µM (inactive)	83.8 µM (inactive)		33.6 µM (inactive)	> 10 µM (inactive)	> 100 µM (inactive)	20.9 µM (inactive)	46.1 µM (inactive)	78.3 µM (inactive)		> 100 µM (inactive)	> 100 µM (inactive)				
C=C(C[N+](C)(C)C)N/N=C/c1oc(-c2ccc(OC)c(OC)c2)c(-c2ccc(OC)c(OC)c2)c1[N+](=O)[O-]	38.5 µM (inactive)	15.4 µM (inactive)	13.6 µM (inactive)	16.4 µM (inactive)	8.63 µM (inactive)		19.6 µM (inactive)	19.1 µM (inactive)	22.9 µM (inactive)	21 µM (inactive)	24.8 µM (inactive)	18.5 µM (inactive)	16.7 µM (inactive)	18.3 µM (inactive)	4.69 µM (inactive)	18.9 µM (inactive)	15.2 µM (inactive)	17.9 µM (inactive)		
COC(=O)C1C(C(=O)OC)C2C(=O)C3C(C(=O)OC)C(C(=O)OC)C3C(=O)C12 (stereo not given)	> 100 µM (inactive)	> 100 µM (inactive)	> 100 µM (inactive)	> 100 µM (inactive)	> 100 µM (inactive)	> 100 µM (inactive)	73.5 µM (inactive)	> 100 µM (inactive)	> 100 µM (inactive)	> 100 µM (inactive)		> 100 µM (inactive)	> 100 µM (inactive)	> 100 µM (inactive)	> 100 µM (inactive)		25.4 µM (inactive)	> 100 µM (inactive)		
Oc1c(Cl)c2nccnc2c2ccccc12	> 100 µM (inactive)	> 100 µM (inactive)	> 100 µM (inactive)	> 100 µM (inactive)	> 100 µM (inactive)		> 100 µM (inactive)	> 100 µM (inactive)	> 100 µM (inactive)	> 100 µM (inactive)	> 100 µM (inactive)	> 100 µM (inactive)	> 100 µM (inactive)	> 100 µM (inactive)		> 100 µM (inactive)	> 100 µM (inactive)	> 100 µM (inactive)		
COC(=O)CCC1=NOC(CC2CC(CCC(=O)OC)=NO2)C1 (stereo not given)	> 100 µM (inactive)		> 100 µM (inactive)	> 100 µM (inactive)	> 100 µM (inactive)	> 100 µM (inactive)	> 100 µM (inactive)	> 100 µM (inactive)	> 100 µM (inactive)	> 100 µM (inactive)	> 100 µM (inactive)	> 100 µM (inactive)	> 100 µM (inactive)			> 100 µM (inactive)	> 100 µM (inactive)	> 100 µM (inactive)		
O=C1NC(=O)c2c1n(Cc1ccccc1)c(=O)n2Cc1ccccc1	> 100 µM (inactive)	> 100 µM (inactive)	> 100 µM (inactive)	> 100 µM (inactive)	87.7 µM (inactive)	> 100 µM (inactive)	25.8 µM (inactive)	35.8 µM (inactive)	> 100 µM (inactive)	> 100 µM (inactive)	> 100 µM (inactive)	> 100 µM (inactive)	36 µM (inactive)	> 100 µM (inactive)		> 100 µM (inactive)	> 100 µM (inactive)	> 100 µM (inactive)		
N#C[C@]12CC3(CC[C@H]1CC1(C2)OCCO1)OCCO3	> 100 µM (inactive)	> 100 µM (inactive)	> 100 µM (inactive)	> 100 µM (inactive)	> 100 µM (inactive)	> 100 µM (inactive)		> 100 µM (inactive)	> 100 µM (inactive)		> 100 µM (inactive)	> 100 µM (inactive)	> 100 µM (inactive)	> 100 µM (inactive)	> 100 µM (inactive)	> 100 µM (inactive)	> 100 µM (inactive)	> 100 µM (inactive)		
Cc1noc2c1C(=O)CCC2		> 100 µM (inactive)	> 100 µM (inactive)	> 100 µM (inactive)	> 100 µM (inactive)		> 100 µM (inactive)	> 100 µM (inactive)	> 100 µM (inactive)		> 100 µM (inactive)	> 100 µM (inactive)	> 100 µM (inactive)	> 100 µM (inactive)	> 100 µM (inactive)	> 100 µM (inactive)	> 100 µM (inactive)	> 100 µM (inactive)		
COc1ccc2nc3cc(Cl)ccc3c(SCC(=O)Nc3ccccc3-c3ccccc3NC(=O)CSc3c4ccc(Cl)cc4nc4ccc(OC)cc34)c2c1	> 100 µM (inactive)	> 100 µM (inactive)	> 100 µM (inactive)	> 100 µM (inactive)		> 100 µM (inactive)	> 100 µM (inactive)	> 100 µM (inactive)	> 100 µM (inactive)	> 100 µM (inactive)	> 100 µM (inactive)	> 100 µM (inactive)	> 100 µM (inactive)	> 100 µM (inactive)		> 100 µM (inactive)	> 100 µM (inactive)	> 100 µM (inactive)		
CNC1=Nc2ccc(Cl)cc2C(c2ccccc2)=NN1C	> 100 µM (inactive)	> 100 µM (inactive)	83.8 µM (inactive)	> 100 µM (inactive)	46 µM (inactive)	> 100 µM (inactive)	27.6 µM (inactive)	51.2 µM (inactive)	> 100 µM (inactive)	> 100 µM (inactive)	45.4 µM (inactive)	> 100 µM (inactive)	> 100 µM (inactive)	> 100 µM (inactive)		35.5 µM (inactive)	17.5 µM (inactive)	57.9 µM (inactive)		
O=C(Cc1nc(-c2ccccc2)cc(=O)n1-c1ccccc1Cl)c1ccncc1	> 100 µM (inactive)	> 100 µM (inactive)	> 100 µM (inactive)	> 100 µM (inactive)	9.1 µM (inactive)	> 100 µM (inactive)	> 100 µM (inactive)	> 100 µM (inactive)	> 100 µM (inactive)	> 100 µM (inactive)	> 100 µM (inactive)	> 100 µM (inactive)	> 100 µM (inactive)	> 100 µM (inactive)		> 100 µM (inactive)	> 100 µM (inactive)	> 100 µM (inactive)		
Oc1ccc(CNCc2ccccc2)c2cccnc12	0.0875 µM (active)	0.182 µM (active)	0.0436 µM (active)	2.65 µM (inactive)	0.294 µM (active)	0.0853 µM (active)	0.177 µM (active)	0.138 µM (active)		0.156 µM (active)	0.217 µM (active)	0.421 µM (active)	0.34 µM (active)	0.424 µM (active)	0.182 µM (active)	0.316 µM (active)	0.116 µM (active)	0.24 µM (active)	0.36 µM (active)	0.0783 µM (active)
O=C1c2c(ccc3c2CCC3)CC12Cc1cc3c(cc1C2)CCC3	> 100 µM (inactive)	> 100 µM (inactive)	> 100 µM (inactive)	> 100 µM (inactive)	> 100 µM (inactive)	> 100 µM (inactive)	> 100 µM (inactive)	> 100 µM (inactive)		> 100 µM (inactive)	> 100 µM (inactive)	> 100 µM (inactive)	> 100 µM (inactive)	> 100 µM (inactive)	> 100 µM (inactive)	> 100 µM (inactive)	> 100 µM (inactive)	> 100 µM (inactive)	> 100 µM (inactive)	> 100 µM (inactive)
COC(=O)c1c(O)ccc(O)c1C(C(C)=O)C(C)=O	> 100 µM (inactive)		> 100 µM (inactive)	> 100 µM (inactive)	> 100 µM (inactive)	> 100 µM (inactive)	> 100 µM (inactive)	> 100 µM (inactive)	> 100 µM (inactive)	> 100 µM (inactive)	> 100 µM (inactive)	> 100 µM (inactive)	> 100 µM (inactive)	> 100 µM (inactive)		> 100 µM (inactive)	> 100 µM (inactive)	> 100 µM (inactive)		
OC1C2CCCCN2C[C@@H](O)[C@H]1O (stereo not given in full)	> 100 µM (inactive)	> 100 µM (inactive)	> 100 µM (inactive)	> 100 µM (inactive)	> 100 µM (inactive)	> 100 µM (inactive)	> 100 µM (inactive)	> 100 µM (inactive)		> 100 µM (inactive)	> 100 µM (inactive)	> 100 µM (inactive)	> 100 µM (inactive)	> 100 µM (inactive)	> 100 µM (inactive)	> 100 µM (inactive)	> 100 µM (inactive)	> 100 µM (inactive)	> 100 µM (inactive)	> 100 µM (inactive)
